Patent US20240255419A1, “MOLECULAR PROBES FOR MAPPING BIOLOGICAL ACTIVITY” (Trustees of Boston University, priority 2023, published 2024)
Each block holds one compound with its values, some of them ahead of it.

Key:
SJSA-1 cells = assay: induction of apoptosis for activating caspase-3/7; assay type: cell-based
Description: Other than phosphatase, we profiled caspase-3/7 activity in live cancer cells.

[1] = tested on: alkaline phosphatase (ALP); conditions: standard substrate, identical conditions
ATP synthetase = assay: cellular uptake mechanism, NBD fluorescence of NBD-Phos-CN(S); assay type: cell-based; conditions: 5 μM inhibitor, cells with NBD-Phos-CN(S)
Description: Considering the high sensitivity and resistance to photobleaching, we conducted real-time monitoring of dephosphorylation reaction in cells by MIP imaging as Phos-CN(S) is introduced to the cells. […] The Nanoparticles formed by the amphiphilic nitrile chameleons may escape from endosomes through endosomal membrane disruption or perforation. The variation in phosphatase activity patterns at different time points is attributed to the dynamic movements of cellular structures within live cells. As previously discussed, the nanofilaments intertwine with cellular structures, causing the nanofilaments to move along with these structures. Furthermore, we utilized NBD-Phos-CN(S) to study the cellular uptake mechanism of nitrile chameleons because NBD fluorescence cannot distinguish between substrate and product.

caspase-3 (active) = molecular target: T1, caspase-3 (active) (Homo sapiens, UniProt P42574); assay: enzymatic conversion efficiency by caspase-3 (active), time-course of product formation; assay type: biochemical; conditions: standard substrate, identical conditions
T1 sequence (P42574 29-175 limits assumed): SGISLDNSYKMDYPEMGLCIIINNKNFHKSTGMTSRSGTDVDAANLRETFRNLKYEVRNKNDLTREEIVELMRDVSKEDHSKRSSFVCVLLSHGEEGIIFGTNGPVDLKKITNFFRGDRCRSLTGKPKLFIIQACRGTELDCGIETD
T1 sequence (P42574 176-277 limits assumed): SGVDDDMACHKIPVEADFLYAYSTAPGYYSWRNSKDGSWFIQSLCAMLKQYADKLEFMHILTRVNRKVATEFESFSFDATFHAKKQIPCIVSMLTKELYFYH

Compound: COc1cccc2c1C(=O)c1c(O)c3c(c(O)c1C2=O)C[C@@](O)(C(=O)CO)C[C@@H]3O[C@H]1C[C@H](N)[C@H](O)[C@H](C)O1 [Doxorubicin]
- apoptosis induction (SJSA-1 cells): efficiently induces apoptosis

Compound: O=[N+]([O-])c1ccc(OP(=O)(O)O)cc1 [P-nitrophenyl phosphate]
- initial speed (v0) [1]: 0.53 nmol/min

Compound: CC[C@H]1/C=C/C=C/C[C@@H](C)[C@H](O)[C@@](C)(O)C(=O)[C@@H](C)[C@H](O)[C@@H](C)C(=O)[C@@H](C)[C@H](O)[C@@H](C)/C=C/C(=O)O[C@@H]2[C@H](C)[C@H](CC1)O[C@]1(CC[C@H](C)[C@H](C[C@@H](C)O)O1)[C@H]2C [oligomycin]
- NBD fluorescence inside the cells (ATP synthetase): significantly reduced

- initial speed (v0) (caspase-3 (active)): 0.33 nmol/min
Compound: Ac-DEVD-pNA
